# Reference: US20260218197A1, “EXTRACELLULAR VESICLE SECRETION REDUCING AGENT FOR REDUCING EXTRACELLULAR VESICLE SECRETION, AND USE OF THE SAME” (THEORIA SCIENCE INC., priority 2020, published 2026)
# Key:
# [1] = test system: MDA-MB-231_Luc_D3H2LN cell line; assay: Mice implanted with breast cancer metastatic cell line; type: in vivo; settings: 40 mg/kg intraperitoneal injection every day from Day 7, vs non-administration group (PBS)
# Experimental: As a breast cancer metastatic cell line, an MDA-MB-231_Luc_D3H2LN cell line (hereafter referred to as D3H2LN) was used. […] Specifically, the amounts of secreted EVs in the parent cell line and the D3H2LN were measured by the NTA analysis in the same manner as in Example A1, and also, expression of PSAT1 in the parent cell line and the D3H2LN were measured by Western blotting.
# Immunodeficient mice C. B-17 scid mice (female, 6-week old) were used as mice. The D3H2LN was suspended in PBS to prepare a cell suspension of 1×10^6 cells/100 μL. Then, on the 0th day (Day 0), 100 μL of the cell suspension was subcutaneously implanted in the mammary gland of each mouse by injection. Then, on the 7th day (Day7), the D3H2LN cells had engrafted, and to mice of an inhibitor administration group (n=6), an NCT-503 solution (solvent: PBS) was administered by intraperitoneal injection every day at 40 mg/kg of body weight. To mice of a non-administration group (n=6, Vehicle), the same amount of PBS was administered every day instead of the NCT-503. For each of the mice in both the administration group and the non-administration group, the tumor volume in the primary lesion (mammary gland) was measured every week using an IVIS-Spectrum (Summit Pharmaceuticals International Corporation). Specifically, the tumor volume was calculated as per the mathematical expression using the longest diameter and the shortest diameter (shortest diameter×shortest diameter×longest diameter×0.5). Also, the body weight of each mouse was measured every day to determine the toxicity. On the 35th day (Day 35), the mice were sacrificed and the mammary gland as the primary lesion and the lungs as the metastatic lesion were excised from each mouse, after which the weight of the primary lesion was measured.
# [2] = test system: normal epithelial cells in the large intestine (HCoEpiC); assay: Amount of secreted EVs per cell by ExoScreen in normal cells; type: cell-based
# Experimental: (§1) EV detection was performed using an AlphaLISA reagent (Perkin Elmer) composed of AlphaScreen streptavidin-coated donor beads (6760002), AlphaLISA unconjugated acceptor beads (6062011), and an AlphaLISA universal buffer (AL001F), a 96-well half-area white plate (6005560, Perkin Elmer), and a detection device EnSpire Alpha 2300 Mutilabel plate reader (Perkin Elmer). Specifically, the EV detection was performed as follows. Each well of the plate was filled with 5 μL of EVs or 10 μL of CM (cell culture supernatant), 10 μL of a 5 nmol/L biotinylated antibody solution prepared using the above-described buffer, and 10 μL of 50 µg/mL AlphaLISA acceptor bead-conjugated antibody. For detection of CD9/CD9 double-positive EVs, a biotinylated anti-human CD9 antibody and an anti-human CD9 antibody conjugated with AlphaLISA acceptor beads were used. For detection of CD9/CD63 double-positive EVs, a biotinylated anti-human CD9 antibody and an anti-human CD63 antibody conjugated with AlphaLISA acceptor beads were used. For detection of CD63/CD63 double-positive EVs, a biotinylated anti-human CD63 antibody and an anti-human CD63 antibody conjugated with AlphaLISA acceptor beads were used. The plate was incubated at 37° C. for 1 hour, and then, 25 μL of 80 μg/mL AlphaScreen streptavidin-coated donor beads were added thereto. The plate was incubated at 37° C. for another 30 minutes in the dark. Next, luminescence in the wells of the plate was measured using the detection device with the excitation wavelength set to 680 nm and the emission detection wavelength set to 615 nm. The antibodies used were both commercially available products, namely, a mouse monoclonal anti-human CD9 (Clone 12A12) and a CD63 antibody (Clone 8A12) (both available from Cosmo Bio).
# (§2) The present example examined the effect of NCT-503 on normal cells to provide indirect data showing that NCT-503 reduced EV secretion specific to cancer cells. […] Thereafter, the cell viability was determined and also the amount of secreted EVs was measured by the ExoScreen method.
# (§3) Specifically, the test was performed in the following manner. […] Then, the medium in the wells was collected and the cells in the wells were counted. As a control, the same procedures as described above were performed except that DMSO was added instead of the inhibitor solution, and the cells in the wells were counted. Then, the cell viability was calculated assuming that the number of cells in the NCT-free (0 M) medium (i.e., DMSO-containing medium) of the control was a relative value of 1. Also, the amount of secreted EVs was measured by ExoScreen.
# [3] = test system: normal epithelial cells in the lung (HBEC); assay: as above; type: cell-based
# Experimental: as §1, §2, §3
smiles,measurement,setting,value
Cc1cc(C)nc(NC(=S)N2CCN(Cc3ccc(C(F)(F)F)cc3)CC2)c1 [NCT-503],tumor volume of the primary lesion (mammary gland),[1]; Day 21 and Day 35,significantly reduced
same,metastatic lesions in the lungs (HE-stained),[1]; Day 35,fewer metastatic lesions
same,tumor weight of the primary lesion (mammary gland),[1]; Day 35,significantly reduced
same,"difference in amount of secreted EVs, NCT-503-containing medium vs DMSO-containing medium without NCT","[2]; normal epithelial cells in the large intestine, 0.15625 to 2.5 μmol/L",almost no difference
same,relative value of the amount of secreted EVs with respect to DMSO-containing medium without NCT (0 µM),"[2]; normal epithelium cells in the large intestine, NCT-503 2.5 mol/L (so in the source), 48 hours, ExoScreen",0.98
same,"difference in amount of secreted EVs, NCT-503-containing medium vs DMSO-containing medium without NCT","[3]; normal epithelial cells in the lung, 0.15625 to 2.5 μmol/L",almost no difference
same,relative value of the amount of secreted EVs with respect to DMSO-containing medium without NCT (0 µM),"[3]; normal epithelium cells in the lung, NCT-503 2.5 mol/L (so in the source), 48 hours, ExoScreen",1.17
